Source: paper PMC11259170, “Small-molecule probe for IBD risk variant GPR65 I231L alters cytokine signaling networks through positive allosteric modulation” (Science Advances, 2024)
Where two headings read alike, the source gives them in different places.

Experiments:
[1] = tested on: GPR65 KO HeLa cells + pLX empty vector; assay: cAMP detection, GPR65 KO HeLa + empty pLX vector (null control); format: cell-based, human; conditions: Homo sapiens, 0.5 h; HeLa GPR65 KO + pLX, pH 7.1, 30 min, normalized to DMSO and 100 μM forskolin
Summary of the method: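 CRISPR GPR65-KO HeLa cells, lentivirally reconstituted with hGPR65, mGPR65 or empty vector, were treated at 5000 cells/well in HBSS/Hepes with 0.5 mM IBMX at pH 7.1. Compounds were tested at 25 μM (primary screen) or 195 nM–100 μM (dose curves) for 30 min at RT. cAMP was read by Lance Ultra TR-FRET (665/615 nm) after 1 hour.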

[2] = tested on: human monocyte-derived dendritic cells (MDDCs); assay: Cytokine (TNF) production in human MDDCs, ELISA; format: cell-based; conditions: LPS 100 ng/ml, 3 hours
Description: Human blood samples were collected from healthy donors at the Blood Donor Center at Massachusetts General Hospital in compliance with all relevant ethical regulations and according to protocol 2018P001504 approved by the Mass General Brigham Institutional Review Board. Donors provided informed written consent. Human PBMCs were isolated by density gradient separation using Ficoll-Paque PLUS (VWR- GE Life Sciences, catalog no. 17144002), as previously described ([54]). Isolated PBMCs were incubated overnight in DMEM (10% FBS, 0.2% sodium bicarbonate, 1X Glutamax) at 37°C, 5% CO2. Human monocytes were isolated from an unpurified Buffy Coat using RosetteSep human monocyte enrichment cocktail (StemCell Technologies, 15068) and frozen same day in FBS with 10% DMSO. […]
Frozen human monocytes were thawed and allowed to recover overnight in DMEM [10% FBS, 1% p/s, IL-4 (50 ng/ml; Peprotech, 200-04), and GM-CSF (50 ng/ml; Peprotech, 300-03)] at 37°C and 5% CO2. […] Supernatants were collected and TNF production was measured by ELISA (Invitrogen, 88-7346-88). Plates were read on BMG Labtech PHERAstar FSX. […]

[3] = Lipophilicity (logD); format: physicochemical

Row | Compound | EC50 [1] | TNF secretion ([2]; 5 μM) | TNF secretion ([2]; 20 μM) | logD ([3]; pH 7.4, pH7.4, read-out: LogD (pH7.4)) | logD ([3]; read-out: lipophilicity (logD))
1 | CN1N=C(SCc2ccc(Cl)cc2Cl)Sc2c1cnn(C)c2=O [BTB09089, reference compound] | > 100 µM | – | – | – | –
2 | Cc1ccc(NC(=O)c2cnn3c(O)cc(-c4ccc(COC(C)C)cc4)nc23)nc1 [BRD5075, O=C(NC1=NC=C(C)C=C1)C2=C3N(N=C2)C(O)=CC(C4=CC=C(COC(C)C)C=C4)=N3] | – | did not reach statistical significance | further TNF suppression | 3.57 | 3.57
